From US6420401B1, “1,2,5, thiadiazolidin-3-one 1,1-dioxide derivatives” (Wichita State University, priority 1997, dated 2002)
One block for each compound: values may come before it.

Legend:
Assay type in all cases: biochemical
[1] = target: T1, human leukocyte cathepsin G (Cat G) (Homo sapiens, UniProt P08311); test: Inactivation of cathepsin G, progress curve method
T1 sequence (P08311 21-244): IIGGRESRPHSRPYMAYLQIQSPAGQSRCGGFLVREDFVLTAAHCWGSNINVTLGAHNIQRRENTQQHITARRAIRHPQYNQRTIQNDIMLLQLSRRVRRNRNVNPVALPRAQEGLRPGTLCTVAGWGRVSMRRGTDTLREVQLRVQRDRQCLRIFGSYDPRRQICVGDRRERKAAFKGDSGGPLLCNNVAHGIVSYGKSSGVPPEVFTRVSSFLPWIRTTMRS
Protocol: (§1) An in vitro assay was used to screen compounds of the invention for the ability to reduce or inhibit serine protease activity. The human leukocyte elastase (HLE), cathepsin G (Cat G) and proteinase 3 (PR 3) assays have each been described in detail, Groutas et al. (1997) Biochemistry 36, 4739-4750. Chymase was assayed using N-succinyl Ala-Ala-Pro-Phe p-nitroanilide and 0.45 M Tris buffer/1.8 M NaCl, pH 8.03, Schechter, N. M. et al. (1993) J. Biol. Chem. 268, 23626-23633.
(§2) The rates of inactivation of HLE, Cat G or PR3 by each compound (or library of compounds) were determined by the progress curve method [Morrison, J. F. & Walsh, C. T. (1988) Adv. Enzymol. 61, 201-301]. Typical progress curves using a representative sulfonamide or heterocyclic sulfide inhibitor are illustrated in FIGS. 1 and 2, respectively. The apparent second-order rate constants kinact/kI M^−1 s^−1, the magnitude of which serves as an index of inhibitory potency, were determined by the progress curve method and are listed in Table 5 (sulfonamides), Table 6 (heterocyclic sulfides), Table 3 (oxa acids) , Tables 7 & 8 (libraries 1-30), and Table 9 (reversible inhibitors).
A solution of (L)-4,5-dibenzyl-1,2,5-thiadiazolidin-3-one 1,1 dioxide (0.5 g; 1.58 mmol) and ethyl α-bromofluoroacetate (0.44 g; 2.37 mmol) in dry dimethyl formamide (3 mL) was treated with 60% sodium hydride ([…]; 1.58 mmol). The reaction mixture was kept at 55° C. for 1 h using a water bath. The solvent was removed in vacuo and the product was dissolved in ethyl acetate (35 mL) and washed with water (3×10 mL), 5% sodium bicarbonate (2×10 mL) and dried over anhydrous sodium sulfate. Evaporation of the solvent yielded a crude product (0.56 g) which was purified by flash chromatography using silica gel and a hexane/methylene chloride gradient. The product K-1a (0.15 g; 25% yield) was screened against human leukocyte cathepsin G using the progress curve method (kinact/Ki>10,000 M^−1 s^−1). [drawing 45] [drawing 46] [drawing 47] [drawing 48] [drawing 49]

[2] = target: T2, human leukocyte elastase (HLE) (Homo sapiens, UniProt P08246); test: Inactivation of human leukocyte elastase, progress curve method
T2 sequence (P08246 30-267): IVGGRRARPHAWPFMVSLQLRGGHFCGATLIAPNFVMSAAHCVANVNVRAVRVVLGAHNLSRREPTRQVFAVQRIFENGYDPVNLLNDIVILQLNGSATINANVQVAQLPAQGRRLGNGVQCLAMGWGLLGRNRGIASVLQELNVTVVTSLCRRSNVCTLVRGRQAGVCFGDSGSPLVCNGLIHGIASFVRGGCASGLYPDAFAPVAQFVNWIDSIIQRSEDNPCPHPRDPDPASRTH
Protocol: (§3) Absorbance was recorded at 410 nm for reaction solutions containing 20.0 nM HLE, 1.00 mM MeOSuc-Ala-Ala-Pro-Val p-nitroanilide, and the indicated concentrations of inhibitor in 0.1 M HEPES buffer, pH 7.25, and 3.6% dimethyl sulfoxide. The temperature was maintained at 25° C., and the reactions were initiated by the addition of enzyme.
as §3, with “(Table 4). Absorbance” for “Absorbance”, “monitored” for “recorded”
as §1, §2

[3] = target: T3, Human Leukocyte Proteinase 3 (PR 3) (Homo sapiens, UniProt P24158); test: Inactivation of proteinase 3, progress curve method
T3 sequence (P24158 28-248): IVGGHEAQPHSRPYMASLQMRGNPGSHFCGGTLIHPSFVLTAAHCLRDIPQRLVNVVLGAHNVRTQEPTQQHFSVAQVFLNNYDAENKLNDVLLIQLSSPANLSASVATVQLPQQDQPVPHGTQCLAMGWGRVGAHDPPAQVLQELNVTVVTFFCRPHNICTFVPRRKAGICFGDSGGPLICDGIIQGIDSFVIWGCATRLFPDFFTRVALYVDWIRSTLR
Protocol: as §1, §2

[4] = Table 6, heterocyclic sulfides 53-69
[5] = Table 5, sulfonamides 31-49, apparent second-order rate constant

Structure (SMILES): CN1C(Cc2ccccc2)C(=O)N(CSc2nc3ccccc3o2)S1(=O)=O (centres unmarked) [Compound 66]
kinact/KI [1, 4]: 430 M⁻¹ s⁻¹

Structure (SMILES): CC(C)CC1C(=O)N(CSc2nnc(-c3ccccc3)o2)S(=O)(=O)N1C (centres unmarked) [Compound 61]
kinact/KI [2, 4]: 25300 M⁻¹ s⁻¹

Structure (SMILES): CCOC(=O)C(F)N1C(=O)C(Cc2ccccc2)N(Cc2ccccc2)S1(=O)=O (centres unmarked) [Compound K-1a]
kinact/Ki ([1]; human leukocyte cathepsin G, progress curve method): > 10,000 M^−1 s^−1

Structure (SMILES): CC(C)CC1C(=O)N(CN(C(=O)CNC(=O)OCc2ccccc2)S(C)(=O)=O)S(=O)(=O)N1Cc1ccccc1 (centres unmarked) [Compound 45]
kinact/KI [2, 5]: 134000 M⁻¹ s⁻¹
kinact/KI ([1]; Table 5, sulfonamides 31-49): 70 M⁻¹ s⁻¹
kinact/KI ([3]; Table 5, sulfonamides 31-49): 30100 M⁻¹ s⁻¹

Structure (SMILES): CC(C)CC1C(=O)N(CN(C(=O)Cc2ccccc2)S(C)(=O)=O)S(=O)(=O)N1C (centres unmarked) [Compound 40]
kinact/KI [2, 5]: 28300 M⁻¹ s⁻¹
kinact/KI ([1]; Table 5, sulfonamides 31-49): 220 M⁻¹ s⁻¹
kinact/KI ([3]; Table 5, sulfonamides 31-49): 10100 M⁻¹ s⁻¹

Structure (SMILES): CCCCOC(=O)N(CN1C(=O)C(CC(C)C)N(C)S1(=O)=O)S(C)(=O)=O (centres unmarked) [Compound 32]
kinact/KI [2, 5]: 40500 M⁻¹ s⁻¹

Structure (SMILES): CC(C)CC1C(=O)N(CSc2nc(-c3ccccc3)no2)S(=O)(=O)N1C (centres unmarked) [Compound 53]
kinact/KI [2, 4]: 153000 M⁻¹ s⁻¹

Structure (SMILES): CC(C)CC1C(=O)N(CN(C(=O)CNC(=O)OCc2ccccc2)S(C)(=O)=O)S(=O)(=O)N1C (centres unmarked) [Compound 43]
kinact/KI [2, 5]: 229000 M⁻¹ s⁻¹
kinact/KI ([1]; Table 5, sulfonamides 31-49): 60 M⁻¹ s⁻¹
kinact/KI ([3]; Table 5, sulfonamides 31-49): 27400 M⁻¹ s⁻¹

Structure (SMILES): CC(C)CC1C(=O)N(CN(C(=O)c2ccccc2)S(C)(=O)=O)S(=O)(=O)N1C (centres unmarked) [Compound 39]
kinact/KI [2, 5]: 71000 M⁻¹ s⁻¹

Structure (SMILES): CCCCOC(=O)N(CN1C(=O)C(Cc2ccccc2)N(Cc2ccccc2)S1(=O)=O)S(C)(=O)=O (centres unmarked) [Compound 38]
kinact/KI [2, 5]: 1970 M⁻¹ s⁻¹
kinact/KI ([1]; Table 5, sulfonamides 31-49): 5380 M⁻¹ s⁻¹

Structure (SMILES): CC(C)CC1C(=O)N(CSc2nc3ccccc3o2)S(=O)(=O)N1C (centres unmarked) [Compound 57]
kinact/KI [2, 4]: 80600 M⁻¹ s⁻¹
kinact/KI [1, 4]: 30 M⁻¹ s⁻¹
kinact/KI [3, 4]: 10400 M⁻¹ s⁻¹

Structure (SMILES): CC(C)CC1C(=O)N(CN2C(=O)C(CC(C)C)N(Cc3ccccc3)S2(=O)=O)S(=O)(=O)N1Cc1ccccc1 (centres unmarked) [Compound 49]
kinact/KI [2, 5]: 850 M⁻¹ s⁻¹

Structure (SMILES): CC(C)CC1C(=O)N(CN(C(=O)CNC(=O)OC(C)(C)C)S(C)(=O)=O)S(=O)(=O)N1C (centres unmarked) [Compound 42]
kinact/KI [2, 5]: 140000 M⁻¹ s⁻¹
kinact/KI ([3]; Table 5, sulfonamides 31-49): 27400 M⁻¹ s⁻¹

Structure (SMILES): CC(C)CC1C(=O)N(CSc2nc3ccccc3s2)S(=O)(=O)N1C (centres unmarked) [Compound 54]
kinact/KI [2, 4]: 67300 M⁻¹ s⁻¹

Structure (SMILES): CC(C)CC1C(=O)N(CN(C(=O)OCc2ccccc2)S(C)(=O)=O)S(=O)(=O)N1C (centres unmarked) [Compound 33]
kinact/KI [2, 5]: 22000 M⁻¹ s⁻¹

Structure (SMILES): CC(C)COC(=O)N(CN1C(=O)C(CC(C)C)N(C)S1(=O)=O)S(C)(=O)=O (centres unmarked) [Compound 31]
kinact/KI [2, 5]: 11900 M⁻¹ s⁻¹

Structure (SMILES): CC(C)CC1C(=O)N(CN(C(=O)CNC(=O)OC(C)(C)C)S(C)(=O)=O)S(=O)(=O)N1Cc1ccccc1 (centres unmarked) [Compound 44]
kinact/KI [2, 5]: 149000 M⁻¹ s⁻¹

Structure (SMILES): CCOC(=O)CNC(=O)N(CN1C(=O)C(CC(C)C)N(Cc2ccccc2)S1(=O)=O)S(C)(=O)=O (centres unmarked) [Compound 48]
kinact/KI [2, 5]: 14100 M⁻¹ s⁻¹
kinact/KI ([1]; Table 5, sulfonamides 31-49): 70 M⁻¹ s⁻¹
kinact/KI ([3]; Table 5, sulfonamides 31-49): 5190 M⁻¹ s⁻¹

Structure (SMILES): CN1C(Cc2ccccc2)C(=O)N(CSc2nnc(-c3ccccc3)o2)S1(=O)=O (centres unmarked) [Compound 65]
kinact/KI HLE [2, 4]: inactive
kinact/KI [1, 4]: 490 M⁻¹ s⁻¹

The remaining lines, values ahead:

kinact/KI [2, 4]: 22600 M⁻¹ s⁻¹
Structure (SMILES): CC(C)CC1C(=O)N(CSc2nc3cc(-c4ccccc4)ccc3o2)S(=O)(=O)N1C (centres unmarked) [Compound 63]

kinact/KI [2, 4]: 168000 M⁻¹ s⁻¹
Structure (SMILES): CC(C)CC1C(=O)N(CSc2nnc(-c3ccccc3)o2)S(=O)(=O)N1Cc1ccccc1 (centres unmarked) [Compound 58]

kinact/KI [2, 4]: 560 M⁻¹ s⁻¹
Structure (SMILES): CC(C)CC1C(=O)N(CSc2nc(-c3ccccc3)c(-c3ccccc3)o2)S(=O)(=O)N1Cc1ccccc1 (centres unmarked) [Compound 56]

kinact/KI [2, 4]: 1540 M⁻¹ s⁻¹
Structure (SMILES): CC(C)CC1C(=O)N(CSc2nc(-c3ccccc3)c(-c3ccccc3)o2)S(=O)(=O)N1C (centres unmarked) [Compound 60]

kinact/KI [1, 4]: 15700 M⁻¹ s⁻¹
Structure (SMILES): Nc1ccc2nc(SCN3C(=O)C(Cc4ccccc4)N(Cc4ccccc4)S3(=O)=O)oc2c1 (centres unmarked) [Compound 69]

kinact/KI [1, 4]: 17100 M⁻¹ s⁻¹
Structure (SMILES): O=C1C(Cc2ccccc2)N(Cc2ccccc2)S(=O)(=O)N1CSc1nc2ccccc2o1 (centres unmarked) [Compound 67]

kinact/KI [2, 4]: 67800 M⁻¹ s⁻¹
Structure (SMILES): CC(C)CC1C(=O)N(CSc2nc(-c3ccccc3)no2)S(=O)(=O)N1Cc1ccccc1 (centres unmarked) [Compound 62]

kinact/KI HLE [2, 4]: inactive
kinact/KI [1, 4]: 50 M⁻¹ s⁻¹
kinact/KI [3, 4]: 1090 M⁻¹ s⁻¹
Structure (SMILES): CC(C)CC1C(=O)N(CSc2nc3cc(-c4ccccc4)ccc3o2)S(=O)(=O)N1Cc1ccccc1 (centres unmarked) [Compound 64]

kinact/KI [2, 4]: 174000 M⁻¹ s⁻¹
kinact/KI [1, 4]: 60 M⁻¹ s⁻¹
kinact/KI [3, 4]: 9130 M⁻¹ s⁻¹
Structure (SMILES): CC(C)CC1C(=O)N(CSc2nc3ccccc3o2)S(=O)(=O)N1Cc1ccccc1 (centres unmarked) [Compound 55]

kinact/KI [1, 4]: 17500 M⁻¹ s⁻¹
Structure (SMILES): O=C1C(Cc2ccccc2)N(Cc2ccccc2)S(=O)(=O)N1CSc1nnc(-c2ccccc2)o1 (centres unmarked) [Compound 68]

kinact/KI [2, 4]: 22400 M⁻¹ s⁻¹
Structure (SMILES): CC(C)CC1C(=O)N(CSc2nc3ccccc3s2)S(=O)(=O)N1Cc1ccccc1 (centres unmarked) [Compound 59]
